Here are results for 18 compounds from patent US20180244611A1, “Modulators of the Cystic Fibrosis Transmembrane Conductance Regulator Protein and Methods of Use” (AbbVie S.à.r.l., priority 2017, published 2018).

Assay [1] deals with T1, F508delCFTR (Homo sapiens, UniProt P13569, DEL508-508).
T1 construct: expressed in transfected cells; host or cells: CFBE41o- human lung-derived epithelial cells (CFBE41o-F508delCFTR-HRP), doxycycline-inducible
The assay can be described thus: Cell Surface Expression-Horse Radish Peroxidase (CSE-HRP) assay, test compound with co-corrector.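 For Maximum % activity (with co-corrector): percent of 2 µM positive control corrector over DMSO; co-corrector is that same compound.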 It is filed as cell-based. The following applies: with 2 μM co-corrector; for Maximum % activity (with co-corrector): maximum at any tested concentration, normalized to positive control. In a few lines:
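CFBE41o- cells expressing F508delCFTR with HRP in the fourth exofacial loop, induced with 0.5 μg/mL doxycycline for 72 h, then treated 18-24 h at 33° C. with compound (8 points, top 20 μM, 3-fold) plus 2 μM co-corrector. Surface HRP read by luminol luminescence; activity normalised to positive control, EC50 from variable-slope sigmoidal fit.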

For assay [2], the target named is T1, F508delCFTR. In words: Cell Surface Expression-Horse Radish Peroxidase (CSE-HRP) assay, test compound without co-corrector.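 For Emax: percent of on-plate 2 µM positive control corrector response over DMSO.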 It is filed as cell-based. The following applies: for Emax: maximum at any tested concentration, normalized to positive control, without co-corrector; for EC50: test compound without co-corrector. In a few lines:
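CFBE41o- cells expressing F508delCFTR with HRP in the fourth exofacial loop, induced with 0.5 μg/mL doxycycline for 72 h at 37° C, then exposed to compound alone for 18-24 h at 33° C, 8-point 3-fold series from 20 μM. Surface HRP read by luminol luminescence, normalized to positive corrector control versus DMSO; EC50 from variable-slope sigmoidal fit of three replicate plates.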

T1 sequence (P13569 with tags, fused parts or gaps DEL508-508): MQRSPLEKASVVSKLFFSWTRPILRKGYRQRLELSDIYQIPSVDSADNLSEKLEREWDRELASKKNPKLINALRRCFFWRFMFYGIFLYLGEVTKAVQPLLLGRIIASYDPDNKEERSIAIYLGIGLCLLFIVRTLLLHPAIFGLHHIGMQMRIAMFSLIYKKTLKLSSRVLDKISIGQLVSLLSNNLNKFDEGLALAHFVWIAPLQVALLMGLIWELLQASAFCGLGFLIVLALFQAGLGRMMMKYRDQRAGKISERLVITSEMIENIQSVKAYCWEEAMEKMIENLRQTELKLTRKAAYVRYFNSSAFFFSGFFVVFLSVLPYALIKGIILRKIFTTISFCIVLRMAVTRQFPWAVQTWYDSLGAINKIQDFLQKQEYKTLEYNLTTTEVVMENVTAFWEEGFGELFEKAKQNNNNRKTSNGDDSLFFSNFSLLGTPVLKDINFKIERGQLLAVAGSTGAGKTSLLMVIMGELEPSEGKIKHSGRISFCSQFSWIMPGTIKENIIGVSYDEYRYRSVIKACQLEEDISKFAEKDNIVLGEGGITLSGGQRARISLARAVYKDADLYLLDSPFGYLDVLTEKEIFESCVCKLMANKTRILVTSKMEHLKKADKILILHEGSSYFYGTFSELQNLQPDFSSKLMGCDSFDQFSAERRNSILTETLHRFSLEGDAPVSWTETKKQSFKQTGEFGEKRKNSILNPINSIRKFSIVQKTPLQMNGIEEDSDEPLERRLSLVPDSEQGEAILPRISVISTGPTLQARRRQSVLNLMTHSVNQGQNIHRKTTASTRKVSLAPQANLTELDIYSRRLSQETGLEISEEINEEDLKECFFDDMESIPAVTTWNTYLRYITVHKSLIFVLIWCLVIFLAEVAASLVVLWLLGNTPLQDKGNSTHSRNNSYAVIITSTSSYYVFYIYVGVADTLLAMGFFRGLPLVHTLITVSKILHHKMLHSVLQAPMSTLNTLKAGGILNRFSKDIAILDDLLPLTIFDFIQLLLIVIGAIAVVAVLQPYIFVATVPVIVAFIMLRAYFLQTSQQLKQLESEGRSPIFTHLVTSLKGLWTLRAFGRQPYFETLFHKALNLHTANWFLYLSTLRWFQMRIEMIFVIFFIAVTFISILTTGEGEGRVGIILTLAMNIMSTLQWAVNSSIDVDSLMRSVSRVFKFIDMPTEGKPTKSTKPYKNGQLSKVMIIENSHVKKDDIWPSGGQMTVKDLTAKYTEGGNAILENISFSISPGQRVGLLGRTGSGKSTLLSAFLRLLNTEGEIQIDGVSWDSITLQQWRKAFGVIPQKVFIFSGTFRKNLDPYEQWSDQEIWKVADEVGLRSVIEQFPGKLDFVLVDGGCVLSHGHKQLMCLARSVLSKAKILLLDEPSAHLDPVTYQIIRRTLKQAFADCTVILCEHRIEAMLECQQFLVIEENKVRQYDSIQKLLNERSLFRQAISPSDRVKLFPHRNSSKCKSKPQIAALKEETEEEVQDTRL

Turning to `CCC1(C(=O)NS(=O)(=O)c2cccc3ncccc23)CCc2c(Cl)cccc21` (stereo not drawn) [Example I-42, 4-chloro-1-ethyl-N-(quinoline-5-sulfonyl)-2,3-dihydro-1H-indene-1-carboxamide], on F508delCFTR [1], the “Maximum % activity (with co-corrector)” value is given as “+++ (≥350)” and the EC50 is less than 3 µM. For the same compound, on F508delCFTR [2], the Emax was no less than 150% and the EC50 was less than 3 µM.
With `CCC1(C(=O)NS(=O)(=O)c2cccc3sccc23)CCc2c(Cl)cccc21` (stereo not drawn) [Example I-43, N-(1-benzothiophene-4-sulfonyl)-4-chloro-1-ethyl-2,3-dihydro-1H-indene-1-carboxamide], at F508delCFTR [1], the “Maximum % activity (with co-corrector)” value was “+++ (≥350)” and the EC50 was less than 3 µM. Further, at F508delCFTR [2], the Emax lay in the range of 50 to 150% and the EC50 was less than 3 µM.
For the compound `COc1ccc(Br)c2c1C(C(=O)NS(=O)(=O)c1cccc3ncccc13)CC2` (stereo not drawn) [Example I-44, 4-bromo-7-methoxy-N-(quinoline-5-sulfonyl)-2,3-dihydro-1H-indene-1-carboxamide], on F508delCFTR [1], the “Maximum % activity (with co-corrector)” value is given as “+++ (≥350)” and the EC50 was less than 3 µM. Besides, at F508delCFTR [2], the Emax was no less than 150% and the EC50 was less than 3 µM.
Take `COCCOc1ccc(Br)c2c1CCCC2C(=O)NS(=O)(=O)c1cccc2ccccc12` (stereo not drawn) [Example I-45, 8-bromo-5-(2-methoxyethoxy)-N-(naphthalene-1-sulfonyl)-1,2,3,4-tetrahydronaphthalene-1-carboxamide]: at F508delCFTR [1], the “Maximum % activity (with co-corrector)” value is given as “+++ (≥350)” and the EC50 is less than 3 µM. At F508delCFTR [2], the Emax was no less than 150% and the EC50 is less than 3 µM.
As for `COc1ccc(Br)c2c1[C@@H](C(=O)NS(=O)(=O)c1cccc3ncccc13)CC2` [Example I-46, (1S)-4-bromo-7-methoxy-N-(quinoline-5-sulfonyl)-2,3-dihydro-1H-indene-1-carboxamide], at F508delCFTR [1], the “Maximum % activity (with co-corrector)” value was “+++ (≥350)” and the EC50 was less than 3 µM. At F508delCFTR [2], this compound yielded an Emax of no less than 150% and an EC50 of 3 to 10 µM.
The corresponding values for `COc1ccc(Br)c2c1[C@H](C(=O)NS(=O)(=O)c1cccc3ncccc13)CC2` [Example I-47, (1R)-4-bromo-7-methoxy-N-(quinoline-5-sulfonyl)-2,3-dihydro-1H-indene-1-carboxamide] are “+++ (≥350)”, less than 3 µM, no less than 150% and less than 3 µM.
As to `COc1ccc(Br)c2c1CCC[C@@H]2C(=O)NS(=O)(=O)c1cccc2ccccc12` [Example I-48, (1S)-8-bromo-5-methoxy-N-(naphthalene-1-sulfonyl)-1,2,3,4-tetrahydronaphthalene-1-carboxamide], at F508delCFTR [1], the “Maximum % activity (with co-corrector)” value is given as “+++ (≥350)” and the EC50 is less than 3 µM. At F508delCFTR [2], this compound showed an Emax of no less than 150% and an EC50 of 3 to 10 µM.
The like results for `COc1ccc(Br)c2c1CCC[C@H]2C(=O)NS(=O)(=O)c1cccc2ccccc12` [Example I-49, (1R)-8-bromo-5-methoxy-N-(naphthalene-1-sulfonyl)-1,2,3,4-tetrahydronaphthalene-1-carboxamide] were, in that order, “+++ (≥350)”, less than 3 µM, no less than 150% and less than 3 µM.
The corresponding values for `COc1ccc(Br)c2c1C(C(=O)NS(=O)(=O)c1cccc3ncccc13)CCC2` (stereo not drawn) [Example I-50, 5-bromo-8-methoxy-N-(quinoline-5-sulfonyl)-1,2,3,4-tetrahydronaphthalene-1-carboxamide] are “+++ (≥350)”, less than 3 µM, no less than 150% and less than 3 µM.
As to `COc1ccc(Br)c2c1[C@@H](C(=O)NS(=O)(=O)c1cccc3ccccc13)CC2` [Example I-51, (1S)-4-bromo-7-methoxy-N-(naphthalene-1-sulfonyl)-2,3-dihydro-1H-indene-1-carboxamide], at F508delCFTR [1], the “Maximum % activity (with co-corrector)” value is “++ (≥150 and <350)”; the EC50 was in the range of 3 to 10 µM. At F508delCFTR [2], the Emax was in the range of 50 to 150% and the EC50 lay in the range of 3 to 10 µM.
Take `COc1ccc(Br)c2c1[C@H](C(=O)NS(=O)(=O)c1cccc3ccccc13)CC2` [Example I-52, (1R)-4-bromo-7-methoxy-N-(naphthalene-1-sulfonyl)-2,3-dihydro-1H-indene-1-carboxamide]: at F508delCFTR [1], the “Maximum % activity (with co-corrector)” value is “+++ (≥350)” and the concentration giving a half-maximal response (EC50) is less than 3 µM. Also, on F508delCFTR [2], the maximal response (Emax) is no less than 150% and the EC50 was less than 3 µM.
On to `CCOc1ccc(Br)c2c1C(C(=O)NS(=O)(=O)c1cccc3ccccc13)CC2` (stereo not drawn) [Example I-53, 4-bromo-7-ethoxy-N-(naphthalene-1-sulfonyl)-2,3-dihydro-1H-indene-1-carboxamide], for which, at F508delCFTR [1], the “Maximum % activity (with co-corrector)” value is “+++ (≥350)” and the EC50 is less than 3 µM. In addition, at F508delCFTR [2], the Emax is no less than 150% and the EC50 is less than 3 µM.
As to `CC(C)Oc1ccc(Br)c2c1C(C(=O)NS(=O)(=O)c1cccc3ccccc13)CC2` (stereo not drawn) [Example I-54], at F508delCFTR [1], the “Maximum % activity (with co-corrector)” value is recorded as “+++ (≥350)” and the EC50 is less than 3 µM. At F508delCFTR [2], this compound showed an Emax of no less than 150% and an EC50 of 3 to 10 µM.
The like results for `O=C(NS(=O)(=O)c1cccc2ccccc12)C1CCc2c(Br)ccc(OCC3CC3)c21` (stereo not drawn) [Example I-55, 4-bromo-7-(cyclopropylmethoxy)-N-(naphthalene-1-sulfonyl)-2,3-dihydro-1H-indene-1-carboxamide] were, in that order, “+++ (≥350)”, less than 3 µM, no less than 150% and less than 3 µM.
With `COc1ccc(Br)c2c1CCCC2C(=O)NS(=O)(=O)c1cccc2ncccc12` (stereo not drawn) [Example I-56, 8-bromo-5-methoxy-N-(quinoline-5-sulfonyl)-1,2,3,4-tetrahydronaphthalene-1-carboxamide], at F508delCFTR [1], the “Maximum % activity (with co-corrector)” value is on record as “+++ (≥350)” and the EC50 was less than 3 µM. In addition, at F508delCFTR [2], the Emax was no less than 150% and the EC50 is less than 3 µM.
For `COc1ccc(-c2ccc(C)cc2)c2c1CCCC2C(=O)NS(=O)(=O)c1cccc2ccccc12` (stereo not drawn) [Example I-57, 5-methoxy-8-(4-methylphenyl)-N-(naphthalene-1-sulfonyl)-1,2,3,4-tetrahydronaphthalene-1-carboxamide], at F508delCFTR [1], the “Maximum % activity (with co-corrector)” value is reported as “+++ (≥350)” and the EC50 is less than 3 µM. For the same compound, on F508delCFTR [2], the Emax was no less than 150% and the concentration giving a half-maximal response (EC50) was less than 3 µM.
In the case of `O=C(NS(=O)(=O)c1cccc2ccccc12)C1CCc2c(Br)ccc(OC(F)F)c21` (stereo not drawn) [Example I-58, 4-bromo-7-(difluoromethoxy)-N-(naphthalene-1-sulfonyl)-2,3-dihydro-1H-indene-1-carboxamide], on F508delCFTR [1], the “Maximum % activity (with co-corrector)” value is “+++ (≥350)” and the EC50 was less than 3 µM. On F508delCFTR [2], this compound returned an Emax of no less than 150% and an EC50 of less than 3 µM.
For `COc1ccc(Cl)c2c1C(C(=O)NS(=O)(=O)c1cccc3ccccc13)CC2` (stereo not drawn) [Example I-59, 4-chloro-7-methoxy-N-(naphthalene-1-sulfonyl)-2,3-dihydro-1H-indene-1-carboxamide], on F508delCFTR [1], the “Maximum % activity (with co-corrector)” value is “+++ (≥350)” and the EC50 is less than 3 µM. Further, at F508delCFTR [2], the Emax is no less than 150% and the EC50 lay within 3 to 10 µM.

One may read the EC50 as the midpoint of the concentration-response curve. A lower EC50 goes with higher potency in that assay. As usually defined, the Emax is the size of the effect at its maximum, as opposed to the concentration needed.
